This note sets out measurements from patent US20090010910A1, “COMPOSITIONS AND METHODS FOR DERMATOLOGICAL WOUND HEALING” (MEDIWOUND LTD., priority 2004, published 2009).

This experiment concerns burn eschar (deep thermal burn). The experiment in a line: In vivo eschar debridement test in swine model (radiant-heat deep thermal burn, 4-hour application, visual assessment score). Details: species or system young domestic pig (Landrace×Large Whites juvenile swine).

Excerpt: This study assessed the eschar-debriding activity of the debriding composition in vivo using an animal model of young domestic pig (Landrace×Large Whites juvenile swine) 22 Kg±2 Kg, bearing deep thermal burn. […] In order to create test conditions burns were inflicted in fully anesthetized animals, in a dorsal test area, by a radiant heat device creating wounds of about 4.5×4.5 cm^2. The treatment consisted of a 4-hour application of the debriding composition following by cleansing of the wound. Visual evaluation of the wound and extent of debridement is carried out by photographical documentation of the burn was performed before and after the debriding treatment. The results were expressed using debridement visual assessment scoring (VAS) scale of 1 to 5 as follows:
The model was a radiant-heat thermal burn in an anesthetized young domestic pig. In order to create test conditions which are in accordance with the therapeutic use of the test article, deep dermal and full thickness burns were inflicted in all animals by applying a radiant heat device to the back to cover an area of approximately 3% TBSA (4.5×4.5 cm) for each burn. A gross evaluation of the debriding activity of the test article (the amount of eschar removed) was assessed and photographically documented. […]

Consider `O=[N+]([O-])[O-].[Ag+]` [AgNO3], for which, under “AgNO3 (0.5%), FIG. 1”, the “debridement by semi solid cake of debriding agent reconstituted with hydrating gel plus antiseptic” value is given as “performs debridement”. The “difference in morphology of debrided burns between areas treated with debriding mixture comprising the antiseptic” value (FIG. 1, areas 10-12 (Silverol™) versus 14-15 (AgNO3), after cleaning dissolved eschar) is “No significant difference”.
